Measured values reported in PubChem BioAssay AID2060619 (Molecular Pharmacology Branch, DTP, NCI, 2025).
pIC50: −log10 of the molar value. Several values for one entry are separate records, joined by “and”; a condition that tells them apart may be missing. Equal entries are not always repeated. Values belong to the compound of their own block, whether it stands above or below them.

Test system: 323965-272-R-J2-PDC complex spheroid viability
Assay: Anticancer human tumor 323965-272-R-J2-PDC patient-derived pancreatic carcinoma cell line growth inhibition [CLK]
Conditions: for viability, T/C: stronger effect = lower value
Method in brief: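 Patient-derived tumor cells grown as complex spheroids with HUVEC endothelial cells and mesenchymal stem cells, treated with drug combinations. Concentrations descend in half-log steps from near clinical Cmax, or from 10 microM if Cmax unknown.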

[1] = curve of first compound, second compound 0.0316 µM
[2] = curve of first compound, second compound 0.1 µM
[3] = curve of first compound, second compound 0.316 µM
[4] = curve of first compound, second compound 1 µM
[5] = curve of first compound, second compound 3.16 µM
[6] = curve of first compound, second compound 10 µM
[7] = second compound 0.0316 µM, first compound 0.0316 µM
[8] = second compound 0.0316 µM, first compound 0.1 µM
[9] = second compound 0.0316 µM, first compound 0.316 µM
[10] = second compound 0.0316 µM, first compound 1 µM
[11] = second compound 0.0316 µM, first compound 3.16 µM
[12] = second compound 0.0316 µM, first compound 10 µM
[13] = second compound 0.1 µM, first compound 0.0316 µM
[14] = second compound 0.1 µM, first compound 0.1 µM
[15] = second compound 0.1 µM, first compound 0.316 µM
[16] = second compound 0.1 µM, first compound 1 µM
[17] = second compound 0.1 µM, first compound 3.16 µM
[18] = second compound 0.1 µM, first compound 10 µM
[19] = second compound 0.316 µM, first compound 0.0316 µM
[20] = second compound 0.316 µM, first compound 0.1 µM
[21] = second compound 0.316 µM, first compound 0.316 µM
[22] = second compound 0.316 µM, first compound 1 µM
[23] = second compound 0.316 µM, first compound 3.16 µM
[24] = second compound 0.316 µM, first compound 10 µM
[25] = second compound 1 µM, first compound 0.0316 µM
[26] = second compound 1 µM, first compound 0.1 µM
[27] = second compound 1 µM, first compound 0.316 µM
[28] = second compound 1 µM, first compound 1 µM
[29] = second compound 1 µM, first compound 3.16 µM
[30] = second compound 1 µM, first compound 10 µM
[31] = second compound 3.16 µM, first compound 0.0316 µM
[32] = second compound 3.16 µM, first compound 0.1 µM
[33] = second compound 3.16 µM, first compound 0.316 µM
[34] = second compound 3.16 µM, first compound 1 µM
[35] = second compound 3.16 µM, first compound 3.16 µM
[36] = second compound 3.16 µM, first compound 10 µM
[37] = second compound 10 µM, first compound 0.0316 µM
[38] = second compound 10 µM, first compound 0.1 µM
[39] = second compound 10 µM, first compound 0.316 µM
[40] = second compound 10 µM, first compound 1 µM
[41] = second compound 10 µM, first compound 3.16 µM
[42] = second compound 10 µM, first compound 10 µM
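Note: spheroids exposed to agents for seven days before readout.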
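Throughout, for viability, T/C: percent of DMSO vehicle control wells so 100% = untreated growth.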

Compound: C=C(F)C(=O)N1CCN(c2nc(OCC3CCCN3C)nc3c2CCN(c2cccc4cccc(Cl)c24)C3)CC1CC#N (stereo not drawn) + CN1CCN(c2cc(C(=O)Nc3cc4cc(-c5cnn(C)c5)ccc4cn3)ccn2)CC1
pIC50 [1]: < 5.00 | pIC50 [2]: 7.50 | pIC50 [3]: > 7.50 | pIC50 [4]: > 7.50 | pIC50 [5]: > 7.50 | pIC50 [6]: > 7.50 | viability, T/C [7]: 59% | viability, T/C [8]: 56.5% | viability, T/C [9]: 48.5% | viability, T/C [10]: 74.6% | viability, T/C [11]: 84.4% | viability, T/C [12]: 29.1% | viability, T/C [13]: 45.1% | viability, T/C [14]: 44.3% | viability, T/C [15]: 38% | viability, T/C [16]: 44.3% | viability, T/C [17]: 58.5% | viability, T/C [18]: 25.3% | viability, T/C [19]: 15.6% | viability, T/C [20]: 14.8% | viability, T/C [21]: 14.6% | viability, T/C [22]: 15.5% | viability, T/C [23]: 13.2% | viability, T/C [24]: 5.86% | viability, T/C [25]: 2.38% | viability, T/C [26]: 2.52% | viability, T/C [27]: 2.56% | viability, T/C [28]: 2.45% | viability, T/C [29]: 1.97% | viability, T/C [30]: 0.73% | viability, T/C [31]: 2.89% | viability, T/C [32]: 2.94% | viability, T/C [33]: 2.9% | viability, T/C [34]: 2.86% | viability, T/C [35]: 4.1% | viability, T/C [36]: 0.62% | viability, T/C [37]: 3.59% | viability, T/C [38]: 3.43% | viability, T/C [39]: 2.46% | viability, T/C [40]: 2.58% | viability, T/C [41]: 3.56% | viability, T/C [42]: 0.3%

pIC50 (curve of compound): < 6.52
Compound: C=CC(=O)Nc1cc(Nc2nccc(-c3cn(C)c4ccccc34)n2)c(OC)cc1N(C)CCN(C)C
viability, T/C (compound 0.000949 µM): 103% and 92.1% | viability, T/C (compound 0.003 µM): 80.7% and 91.7% | viability, T/C (compound 0.00949 µM): 97.6% and 86% | viability, T/C (compound 0.03 µM): 90.5% and 83.2% | viability, T/C (compound 0.0949 µM): 81.3% and 78.3% | viability, T/C (compound 0.3 µM): 87.5% and 75.6%

pIC50 (curve of compound): 6.62 and 7.01
Compound: COc1cccc2c1C(=O)c1c(O)c3c(c(O)c1C2=O)CC(O)(C(=O)CO)CC3OC1CC(N)C(O)C(C)O1 (stereo not drawn)
viability, T/C (compound 0.0316 µM): 87.4% and 66.2% | viability, T/C (compound 0.1 µM): 40.6% and 41.4% | viability, T/C (compound 0.316 µM): 38.4% and 37% | viability, T/C (compound 1 µM): 44.7% and 30.5% | viability, T/C (compound 3.16 µM): 30.1% and 21.3% | viability, T/C (compound 10 µM): 2.57% and 0.82%

Compound: COc1cccc2c1C(=O)c1c(O)c3c(c(O)c1C2=O)CC(O)(C(=O)CO)CC3OC1CC(N)C(O)C(C)O1 (stereo not drawn) + CN1CCN(c2cc(C(=O)Nc3cc4cc(-c5cnn(C)c5)ccc4cn3)ccn2)CC1
pIC50 [1]: 6.93 | pIC50 [2]: > 7.50 | pIC50 [3]: > 7.50 | pIC50 [4]: > 7.50 | pIC50 [5]: > 7.50 | pIC50 [6]: > 7.50 | viability, T/C [7]: 67.8% | viability, T/C [8]: 40.7% | viability, T/C [9]: 39.4% | viability, T/C [10]: 34.8% | viability, T/C [11]: 25.3% | viability, T/C [12]: 1.54% | viability, T/C [13]: 54.4% | viability, T/C [14]: 31.6% | viability, T/C [15]: 29.3% | viability, T/C [16]: 28.2% | viability, T/C [17]: 19.1% | viability, T/C [18]: 1.41% | viability, T/C [19]: 20.3% | viability, T/C [20]: 19.8% | viability, T/C [21]: 16.1% | viability, T/C [22]: 13.1% | viability, T/C [23]: 5.8% | viability, T/C [24]: 0.68% | viability, T/C [25]: 2.27% | viability, T/C [26]: 3.05% | viability, T/C [27]: 2.16% | viability, T/C [28]: 1.22% | viability, T/C [29]: 1.2% | viability, T/C [30]: 0.38% | viability, T/C [31]: 4.1% | viability, T/C [32]: 4.05% | viability, T/C [33]: 2.98% | viability, T/C [34]: 1.5% | viability, T/C [35]: 1.35% | viability, T/C [36]: 0.43% | viability, T/C [37]: 4.15% | viability, T/C [38]: 4.78% | viability, T/C [39]: 4.17% | viability, T/C [40]: 1.38% | viability, T/C [41]: 1.47% | viability, T/C [42]: 0.19%
